According to patent US20110027185A1, “Methods of Screening for Anti-Angiogenic Compounds” (priority 2007, published 2011):

Experiments:
HUVEC [1] = assay: HUVEC growth inhibition assay (NCI); assay type: cell-based, human; details: 72 h, crystal violet
Description: Angiogenesis assays were provided by the NCI, details of the assay protocols are given below. In each assays TNP-470 and paclitaxel (Taxol®) were used as reference compounds. HUVEC (1.5×10^3) were plated in a 96-well plate in 100 μL of EBM-2 (Clonetic #CC3162). […] On day 0, one plate was stained with 0.5% crystal violet in 20% methanol for 10 minutes, rinsed with water, and air-dried. The remaining plates were incubated for 72 h at 37° C. After 72 h, plates were stained with 0.5% crystal violet in 20% methanol, rinsed with water and air-dried. The stain was eluted with 1:1 solution of ethanol:0.1 M sodium citrate (including day 0 plate), and absorbance was measured at 540 nm with an ELISA reader (Dynatech Laboratories). Day 0 absorbance was subtracted from the 72 h plates and data was plotted as percentage of control proliferation (vehicle treated cells).

HUVEC [2] = assay: HUVEC cord formation assay on matrigel (NCI); assay type: cell-based, human; details: 24 h
Description: Angiogenesis assays were provided by the NCI, details of the assay protocols are given below. In each assays TNP-470 and paclitaxel (Taxol®) were used as reference compounds. Matrigel (60 μL of 10 mg/mL; Collaborative Lab #35423) was placed in each well of an ice-cold 96-well plate. The plate was allowed to sit at room temperature for 15 minutes then it was incubated at 37° C. for 30 minutes to permit the matrigel to polymerize. In the mean time, HUVEC were prepared in EGM-2 (Clonetic #CC3162) at a concentration of 2×10^5 cells/mL. […] The cells (500 μL) and the drug at 2 times concentration (500 μL) were mixed and 200 μL of this suspension was placed in duplicate on the polymerized matrigel. After 24 h incubation, triplicate pictures were taken for each concentration using a Bioquant Image Analysis system. Drug effect (IC50) is assessed compared to untreated controls by measuring the length of cords formed and number of junctions.

HUVEC [3] = assay: HUVEC cell migration (chemotaxis) assay, Boyden chamber (NCI); assay type: cell-based, human; details: 5 h
Description: Angiogenesis assays were provided by the NCI, details of the assay protocols are given below. In each assays TNP-470 and paclitaxel (Taxol®) were used as reference compounds. Migration was assessed using the 48-well Boyden chamber and 8 μm pore size collagen-coated (10 μg/mL rat tail collagen; Collaborative Laboratories) polycarbonate filters (Osmonics, Inc.). The bottom chamber wells received 27-29 μL of DMEM medium alone (baseline) or medium containing chemo-attractant (bFGF, VEGF or Swiss 3T3 cell conditioned medium). The top chambers received 45 μL of HUVEC cell suspension (1×10^6 cells/mL) prepared in DMEM+1% BSA with or without test compound. After 5 h incubation at 37° C., the membrane was rinsed in PBS, fixed and stained in Diff-Quick solutions. The filter was placed on a glass slide with the migrated cells facing down and cells on top were removed using a Kimwipe. The testing was performed in 4-6 replicates and five fields were counted from each well. Negative, unstimulated, control values were subtracted from stimulated control and drug treated values and data was plotted as mean migrated cell±S.D. The IC50 was calculated from the plotted data.

[4] = test system: endothelial cell proliferation and endothelial capillary formation; details: cited from earlier work
[5] = test system: Lewis lung adenocarcinoma; details: rats, intraperitoneal and per os, subtoxic doses; cited from earlier work
[6] = test system: mouse colon adenocarcinoma cells; details: subtoxic dose, colon 38 spleen liver model; cited from earlier work
[7] = test system: VEGFxxx and VEGFxxxb expression in RPE cells; assay: VEGF isoform ELISA of media of treated RPE cells; assay type: cell-based; details: 0.5 μM or 5 μM, 72 hours
Description: Media was sampled after 72 hours treatment, and assessed for total VEGF and VEGFxxxb expression (see Bates et al., 2002, Woolard et al., 2004 and Varey et al., 2008 for methods).

[8] = test system: VEGFxxxb and total VEGF in RPE cells; assay: Dose dependent effect on VEGF in RPE cell lysate (ELISA, Western blot); assay type: cell-based; details: 24 hours
Description: FIG. 7: Comparison of the effect of compound 5 on the VEGF levels by ELISA. RPE cells were treated with increasing concentrations of compound 5 for 24 hours and the VEGFxxxb and total VEGF concentrations measured by ELISA. **p<0.05, Dunnett's, **p<0.01, 95% confidence interval, alpha=0.05, N=3.
FIG. 8: (A) Western Blot analysis of the cell lysate for expression of VEGF165b. Primary antibody: 56/1 mouse anti-h antibody (200 μg/ml, 1:250 dilution) and secondary antibody: Goat anti-mouse antibody (1:7000 dilution).
RPE cell lysate was extracted after 24 hours incubation with increasing concentrations of compound 5. VEGFxxxb and VEGFxxx levels were then analysed by ELISA (see Bates et al., 2002, Woolard et al., 2004 and Varey et al., 2008 for methods). These levels were compared to total cell protein levels.

FBP21 in RPE cells = assay: VEGFxxxb levels in RPE cells transfected with FBP21 construct; assay type: cell-based, human; details: pWV327 vs pOriGene-FBP21 control, 7 uM, 24 hours
Description: (§1) pOriGene-FBP21 (FIG. 9A, SEQ ID No. 5) was purchased from Origene. This construct contains the cDNA for the human FBP21 gene. Due to the presence in this contruct of non-essential DNA which would have disrupted the expression of FBP21, a three part ligation was carried out to remove this DNA. This generated pWV327 (FIG. 9B, SEQ ID No. 6).
(§2) Both RPE and HEK cells were transfected with either pOriGene-FBP21 (as a control, due to the lack of FBP21 expression) or pWV327 (for overexpression of FBP21), using standard techniques. These cell lines were then treated with compound 5 (7 uM) or untreated, and VEGFxxxb levels analysed after 24 hours. FIGS. 10A, B and C show the results of this analysis.

FBP21 in HEK cells = assay: VEGFxxxb levels in HEK cells transfected with FBP21 construct; assay type: cell-based, human; details: pWV327 vs pOriGene-FBP21 control, 7 uM, 24 hours
Description: as §1, §2

[9] = test system: retinal neovascularisation; assay: Mouse Retinopathy of Prematurity (ROP) oxygen induced retinopathy model; assay type: in vivo; details: for neovascularisation compared with contralateral eye: day 17, p<0.01 paired t-test
Description: Evidence that compound 5, a borrelidin analogue which affects splicing of VEGF through FBP21, affects angiogenesis was gained from an in vivo mouse model, […] (ROP), which mimics some of the processes in Age-related Macular Degeneration and other eye diseases where neovascularisation is associated with disease progression.
Compound 5 was dosed at two concentrations, 0.5 μM and 5 μM, in a mouse Retinopathy of Prematurity (ROP) model (see Konopatskaya et al., 2006 for methods). Oxygen induced retinopathy was induced by placing the mice at 75% oxygen from day 7 to day 12 post birth and then removing them to normal room air. Mice were injected with either vehicle (0.02% DMSO in HBSS) or 0.5 μM or 5 μM compound 5 into one eye, and the other left uninjected (contralateral). At day 17 mice were killed, retinas removed and stained for endothelial cells with isolectin (FIG. 11).

FBP21 = target: T1, FBP21 (Homo sapiens, UniProt O75554); assay: Phage display biopanning with biotinylated bait, Human Colon Tumour Library; assay type: binding; details: SDS and E. coli elution
T1 construct: encode 99 amino acids in frame with the phage coat protein of which a segment of 83 residues share 100% homology with FBP21; purchased Novagen; host or cells: T7 phage amplified in E. coli BLT5403
T1 sequence (O75554 with tags, fused parts or gaps): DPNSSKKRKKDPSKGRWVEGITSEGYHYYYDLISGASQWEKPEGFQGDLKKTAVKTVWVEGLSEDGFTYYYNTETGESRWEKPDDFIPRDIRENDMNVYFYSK
Description: Streptavidin wells were incubated with 1 μM biotinylated probe at 4° C. overnight to prepare the wells for biopanning. After incubation, unbound biotinylated probe was removed from the well by washing with phosphate buffered saline (PBS). Wells were then blocked with blocking solution (3% skimmed milk in PBS) for at least one hour at room temperature. Blocked wells were then briefly washed with PBS and were ready for biopanning use. […] In the first round of biopanning, 0.15 mL of amplified phage library was added to an empty streptavidin coated well and incubated at room temperature for at least 1 hour. This step was included to deselect any phage displaying streptavidin binding proteins. After incubation, the phage were removed from the well and mixed with 50 μL 4× blocking solution (12% skimmed milk in PBS) and incubated at room temperature for at least one hour. 0.125 mL of blocked phage library was added to each pre-prepared biotinylated well and incubated at room temperature for at least one hour. […] After incubation, unbound phage were removed from the well with wash solution. The wash solution was varied depending on the round of biopanning. For first round of biopanning PBS1 was used. For subsequent rounds the stringency of the wash was increased by using sequentially PBS2, PBS3 and PBS4 (see Table I). […]

CC(=O)O[C@H]1C(=O)[C@@]2(C)[C@H]([C@H](OC(=O)c3ccccc3)[C@]3(O)C[C@H](OC(=O)[C@H](O)[C@@H](NC(=O)c4ccccc4)c4ccccc4)C(C)=C1C3(C)C)[C@]1(OC(C)=O)CO[C@@H]1C[C@@H]2O [Taxol, paclitaxel]
IC50 (HUVEC [1]; Homo sapiens): 1.65 ± 0.12 nM
IC50 (HUVEC [2]; Homo sapiens): 50 nM
IC50 (HUVEC [3]; Homo sapiens): 100 nM

borrelidin-amide
selectivity index, capillary formation inhibitory activity versus cell proliferation with respect to borrelidin [4]: 37 fold

CC1CC(C)CC(C)C(O)CC(=O)OC(C2CCCC2C(=O)NCc2cccnc2)C(C#N)=CC=CCC(O)C(C)C1 (stereo not shown) [borrelidin-(3-picolylamide)]
increase of micrometastases [5]: inhibit very considerably
metastasis-forming ability of mouse colon adenocarcinoma cells transplanted into mouse spleen [6]: considerably decreased

C[C@@H]1C[C@H](C)C[C@H](C)[C@@H](O)CC(=O)O[C@H]([C@@H]2CCC[C@H]2C(=O)NCCN2CCOCC2)C/C=C/C=C(/C#N)[C@H](O)[C@@H](C)C1 [borrelidin-morpholinoethyl amide]
selectivity index, capillary formation inhibitory activity versus cell proliferation with respect to borrelidin [4]: 6 fold

CC1CC(C)CC(C)C(O)C(C#N)=CC=CCC(C2CCC2C(=O)O)OC(=O)CC(O)C(C)C1 (stereo not shown) [compound 5, 17-des-(cyclopentane-2′-carboxylic acid)-17-(cyclobutane-2′-carboxylic acid) borrelidin]
VEGFxxx expression (ELISA) [7]: significant downregulation
VEGFxxxb expression (ELISA) [7]: significant upregulation
increase in VEGFxxxb levels versus control ([8]; 5 μM): statistically higher than those of the control
total VEGF levels (ELISA) ([8]; increasing concentrations): dose dependent decrease
effect on VEGFxxxb levels after FBP21 transfection (FBP21 in RPE cells): FBP21 transfection reduced the effect
effect on VEGFxxxb levels after FBP21 transfection (FBP21 in HEK cells): FBP21 transfection reduced the effect
percentage neovascularisation compared to vehicle and the 5 μM dose ([9]; 0.5 μM injected into one eye): significantly inhibited
neovascularisation compared with contralateral eye ([9]; 0.5 μM injected into one eye): significant reduction
neovascularisation compared with contralateral eye ([9]; 5 μM injected into one eye): significant reduction

CO[C@@H]1[C@H](OC(=O)NC(=O)CCl)CC[C@]2(CO2)[C@H]1[C@@]1(C)O[C@@H]1CC=C(C)C [TNP470]
IC50 (HUVEC [1]; Homo sapiens): 3.16 ± 0.82 nM
IC50 (HUVEC [2]; Homo sapiens): 1000 nM
IC50 (HUVEC [3]; Homo sapiens): 500 nM

CC1CC(C)CC(C)C(O)C(C#N)=CC=CCC(C2CCCC2C(=O)OCCc2ccccn2)OC(=O)CC(O)C(C)C1 (stereo not shown) [borrelidin-(2-pyridyl)-ethyl ester]
selectivity index, capillary formation inhibitory activity versus cell proliferation with respect to borrelidin [4]: 7.5 fold

pre-borrelidin
IC50 (HUVEC [1]): 2380 nM
IC50 (HUVEC [2]): > 30000 nM
IC50 (HUVEC [3]): 461 nM
identification of FBP21 fragment by biopanning (binding) (FBP21): never identified

C[C@@H]1C[C@H](C)C[C@H](C)[C@@H](O)CC(=O)O[C@H]([C@@H]2CCC[C@H]2C(=O)OCCN2CCOCC2)C/C=C/C=C(/C#N)[C@H](O)[C@@H](C)C1 [borrelidin-morpholinoethyl ester]
selectivity index, capillary formation inhibitory activity versus cell proliferation with respect to borrelidin [4]: 60 fold
